According to patent US10137212B2, “Tetrahydroxamate chelators of zirconium89 and niobium90 for use in diagnostic applications” (priority 2013, dated 2018):

Experiments:
Assay type in all cases: physicochemical
[1] = complexation of ligands with ^89Zr, yield by ITLC-SG; conditions: 7.5 nmol ligand, pH 7
Method: All solutions described below were prepared with de-ionized water purified through a Chelex column prior to use. Stock solutions of ^89Zr at pH 7 were prepared as follow: to 450 μL of the ^89Zr solution in oxalic acid were added 450 μL of a 1M Na2CO3 solution and the pH was adjusted to 7 by addition of small aliquots of a 0.1 M Na2CO3 or 0.1 M HCl. 450 μL of water containing 3% bovine serum albumin were then added. To 45 μL of stock solution (˜1.3 MBq of ^89Zr in a typical experiment) were added 7.5 nmol (5 μL) of L5, L6, L7, C5, C6, or C7 in DMSO or the natural siderophore desferrioxamine B (DFB) mesylate in de-ionized water. These solutions were incubated at desired temperatures and time of reaction and analyzed by ITLC-SG using a 50 mM EDTA (ethylenediaminetetraacetic acid) solution adjusted to pH=7 in de-ionized water as eluant, and analyzed with a Typhoon 8600 scanner (GE Healthcare) in phosphorimaging mode. The percentage of the activity bound to the ligand after TLC was calculated by converting the TLC scan into a chromatogram and integrating the peak corresponding to the spot at the bottom of the TLC. Activity ratios were averaged out of a minimum of 2 TLCs for each condition. The influence of time and temperature on the complexation yield of ^89Zr by L5, L6, L7, C5, C6 and C7 and DFB is shown in Table 1. […]

[2] = in vitro stability of ^89Zr complexes in 0.1 M sodium phosphate buffer pH 6.5; conditions: 0.1 M sodium phosphate buffer pH 6.5, 10% DMSO, 37° C.
Method: (§1) 10 μL of each ^89Zr complex solution prepared as described above in Example 14 were incubated for 7 days in 40 μL Phosphate-Buffered Saline (PBS) (pH 7.4-10% DMSO) at 20° C., 40 μL sodium phosphate buffer (0.1 M, pH 6.5-10% DMSO) at 37° C., 40 μL human serum at 37° C., or 40 μL 50 mM EDTA (pH 7, 10% DMSO) at 37° C., respectively, and analyzed using the chromatographic system described in the above section after 1 h, 3 h, 1, 2, 3, 4, 5, 6, and 7 days.

[3] = in vitro stability of ^89Zr complexes in 50 mM EDTA (challenge); conditions: pH 7, 37° C.; for ^89Zr remaining complexed after a week: 7 days (n=4), FIG. 13
Method: FIG. 13 is a graph illustrating the stability of the ^89Zr-complexes in 50 mM EDTA at pH 7 and 37° C. over 7 days (n=4).
as §1

Row | SMILES | complexation yield of ^89Zr ([1]; 20° C., 30 min) [%] | complexation yield of ^89Zr ([1]; 20° C., 120 min) [%] | complexation yield of ^89Zr ([1]; 50° C., 30 min) [%] | complexation yield of ^89Zr ([1]; 80° C. (time not given)) [%] | Fraction of intact complex ([2]; 1 Day) [%] | Fraction of intact complex ([2]; 4 Days) [%] | Fraction of intact complex ([2]; 7 Days) [%] | time of release of ~50% of ^89Zr [3] | ^89Zr remaining complexed after a week [3]
1 | CCCCCC(=O)N(O)CCCCCCC(=O)N(O)CCCCCCC(=O)N(O)CCCCCCC(=O)N(O)CCC [Ligand L6] | 82 | 95 | 96 | >99 | 97 | 94 | 94 | – | –
2 | CCCCCCC(=O)N(O)CCCCCCCC(=O)N(O)CCCCCCCC(=O)N(O)CCCCCCCC(=O)N(O)CCC [Ligand L7] | 88 | >99 | >99 | >99 | 99 | 98 | 98 | – | –
3 | O=C1CCCCCCN(O)C(=O)CCCCCCN(O)C(=O)CCCCCCN(O)C(=O)CCCCCCN1O [Ligand C6] | 77 | 79 | 92 | 92 | 89 | 79 | 61 | a single day | 32±4%
4 | CCCCC(=O)N(O)CCCCCC(=O)N(O)CCCCCC(=O)N(O)CCCCCC(=O)N(O)CCC [Ligand L5] | 60 | 71 | 73 | 87.3 | 93 | 89 | 77 | – | –
5 | O=C1CCCCCCCN(O)C(=O)CCCCCCCN(O)C(=O)CCCCCCCN(O)C(=O)CCCCCCCN1O [Ligand C7] | 92 | >99 | >99 | >99 | >99 | 99 | 99 | – | 87±3%
6 | CC(=O)N(O)CCCCCNC(=O)CCC(=O)N(O)CCCCCNC(=O)CCC(=O)N(O)CCCCCN [DFB, desferrioxamine B, reference compound] | >99 | >99 | >99 | >99 | 99 | 98 | 98 | – | –
7 | O=C1CCCCCN(O)C(=O)CCCCCN(O)C(=O)CCCCCN(O)C(=O)CCCCCN1O [Ligand C5] | 17 | 22 | 23 | 29 | 69 | 46 | 42 | within the first minutes | nearly none
